Test results: patent US20250163051A1, “PYRIMIDO AROMATIC RING COMPOUND AND USE THEREOF IN DRUG” (SUNSHINE LAKE PHARMA CO., LTD., priority 2022, published 2025)
Read-outs that look alike come from different tables or passages of the source.

What was measured:
CYP1A2 = target: T1, CYP1A2 (Homo sapiens, UniProt P05177); assay: Inhibition of human liver microsomal CYP1A2; assay type: in vitro ADME; conditions: human liver microsomes, 10 μM test substance; read-out: Relative inhibition rate (%) CYP1A2
T1 construct: from tissue; host or cells: human liver microsomes
T1 sequence (P05177 1-516): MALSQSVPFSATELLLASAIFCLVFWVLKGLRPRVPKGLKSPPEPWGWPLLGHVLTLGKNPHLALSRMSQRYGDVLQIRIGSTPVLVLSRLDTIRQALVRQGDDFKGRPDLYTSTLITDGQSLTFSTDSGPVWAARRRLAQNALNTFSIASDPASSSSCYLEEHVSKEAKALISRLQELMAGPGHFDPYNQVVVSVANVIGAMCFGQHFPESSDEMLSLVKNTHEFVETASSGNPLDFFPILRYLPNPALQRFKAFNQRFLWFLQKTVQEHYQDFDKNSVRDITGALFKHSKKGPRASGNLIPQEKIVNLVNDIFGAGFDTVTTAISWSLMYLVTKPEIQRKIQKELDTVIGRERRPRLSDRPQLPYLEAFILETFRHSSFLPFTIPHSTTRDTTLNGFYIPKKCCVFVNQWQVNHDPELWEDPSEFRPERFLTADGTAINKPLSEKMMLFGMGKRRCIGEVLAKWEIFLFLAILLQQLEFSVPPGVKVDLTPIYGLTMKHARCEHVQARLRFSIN
Procedure: (§1) Experimental purpose: The inhibitory effects of the test compounds on the major metabolizing enzymes CYP1A2, CYP2C19, CYP2D6 and CYP3A4 in microsomes were evaluated using the human liver microsomal system. Experimental method: The test substance was incubated with a suspension of human liver microsomes containing cytochrome P450 enzymes CYP1A2, CYP2C19, CYP2D6 and CYP3A4 at a concentration of 10 μM in the final incubation system. The known substrates were metabolized by the corresponding single enzymes to generate specific metabolites, and the metabolites were determined by UPLC-MS/MS method. The relative inhibition rate (%) was calculated by the percentage reduction of metabolite production by the test compound and solvent DMSO in the same time period. N is the concentration value of the probe substrate metabolite and it is assumed that the […] with or without inhibitor at 0 min is 0. N+inh is the metabolite concentration in the group with inhibitor, and Nveh is the metabolite concentration in the group without inhibitor. The results of the inhibition test of the compounds of the present invention on human liver microsomal CYP enzymes are shown in Table C.

CYP2D6 = target: T2, CYP2D6 (Homo sapiens, UniProt P10635); assay: Inhibition of human liver microsomal CYP2D6; assay type: in vitro ADME; conditions: human liver microsomes, 10 μM test substance; read-out: Relative inhibition rate (%) CYP2D6
T2 construct: from tissue; host or cells: human liver microsomes
Procedure: as §1

hTLR8 = target: T3, hTLR8 (Homo sapiens, UniProt Q9NR97); assay: Agonistic activity on human TLR8 in HEK-Blue hTLR8 cells (QUANTI-Blue); assay type: cell-based; conditions: 24 h incubation, OD650, read-out: hTLR 8 EC50
T3 construct: expressed in transfected cells; host or cells: HEK-Blue hTLR8 cells
T3 sequence (Q9NR97 27-1041): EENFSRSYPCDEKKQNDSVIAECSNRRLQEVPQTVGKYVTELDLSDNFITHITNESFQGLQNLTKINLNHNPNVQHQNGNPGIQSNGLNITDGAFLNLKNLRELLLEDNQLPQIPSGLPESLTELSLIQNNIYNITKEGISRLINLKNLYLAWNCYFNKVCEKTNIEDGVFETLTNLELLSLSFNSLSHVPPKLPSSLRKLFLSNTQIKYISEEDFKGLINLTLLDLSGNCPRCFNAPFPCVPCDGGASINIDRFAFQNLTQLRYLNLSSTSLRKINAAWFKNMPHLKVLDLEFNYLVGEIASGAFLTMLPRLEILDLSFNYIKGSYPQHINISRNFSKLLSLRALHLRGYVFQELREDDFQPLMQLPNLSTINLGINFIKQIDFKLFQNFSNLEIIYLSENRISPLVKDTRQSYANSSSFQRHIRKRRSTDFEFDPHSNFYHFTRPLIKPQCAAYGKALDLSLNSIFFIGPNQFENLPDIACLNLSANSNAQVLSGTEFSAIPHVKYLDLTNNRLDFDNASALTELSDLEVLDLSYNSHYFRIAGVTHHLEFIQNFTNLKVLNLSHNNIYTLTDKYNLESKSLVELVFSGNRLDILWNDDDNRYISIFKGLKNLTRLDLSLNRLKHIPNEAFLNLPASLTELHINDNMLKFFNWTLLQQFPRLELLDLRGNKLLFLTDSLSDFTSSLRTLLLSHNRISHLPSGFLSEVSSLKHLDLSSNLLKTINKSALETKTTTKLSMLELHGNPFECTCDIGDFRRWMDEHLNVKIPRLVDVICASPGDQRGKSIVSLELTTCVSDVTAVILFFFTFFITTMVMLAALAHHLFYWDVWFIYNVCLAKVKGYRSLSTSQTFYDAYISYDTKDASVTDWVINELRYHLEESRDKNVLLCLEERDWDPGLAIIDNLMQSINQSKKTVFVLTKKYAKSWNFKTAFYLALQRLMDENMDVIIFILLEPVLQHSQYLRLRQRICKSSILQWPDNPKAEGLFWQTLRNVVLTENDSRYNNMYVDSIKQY

[1] = Cell toxicity (Celltiter-Glo) in HEK-Blue hTLR8 cells; conditions: human
hTLR7 = target: T4, hTLR7 (Homo sapiens, UniProt Q9NYK1); assay: Agonistic activity on human TLR7 in HEK-Blue hTLR7 cells (QUANTI-Blue); assay type: cell-based; conditions: 24 h incubation, OD650, read-out: hTLR 7 EC50
T4 construct: expressed in transfected cells; host or cells: HEK-Blue hTLR7 cells
T4 sequence (Q9NYK1 27-1049): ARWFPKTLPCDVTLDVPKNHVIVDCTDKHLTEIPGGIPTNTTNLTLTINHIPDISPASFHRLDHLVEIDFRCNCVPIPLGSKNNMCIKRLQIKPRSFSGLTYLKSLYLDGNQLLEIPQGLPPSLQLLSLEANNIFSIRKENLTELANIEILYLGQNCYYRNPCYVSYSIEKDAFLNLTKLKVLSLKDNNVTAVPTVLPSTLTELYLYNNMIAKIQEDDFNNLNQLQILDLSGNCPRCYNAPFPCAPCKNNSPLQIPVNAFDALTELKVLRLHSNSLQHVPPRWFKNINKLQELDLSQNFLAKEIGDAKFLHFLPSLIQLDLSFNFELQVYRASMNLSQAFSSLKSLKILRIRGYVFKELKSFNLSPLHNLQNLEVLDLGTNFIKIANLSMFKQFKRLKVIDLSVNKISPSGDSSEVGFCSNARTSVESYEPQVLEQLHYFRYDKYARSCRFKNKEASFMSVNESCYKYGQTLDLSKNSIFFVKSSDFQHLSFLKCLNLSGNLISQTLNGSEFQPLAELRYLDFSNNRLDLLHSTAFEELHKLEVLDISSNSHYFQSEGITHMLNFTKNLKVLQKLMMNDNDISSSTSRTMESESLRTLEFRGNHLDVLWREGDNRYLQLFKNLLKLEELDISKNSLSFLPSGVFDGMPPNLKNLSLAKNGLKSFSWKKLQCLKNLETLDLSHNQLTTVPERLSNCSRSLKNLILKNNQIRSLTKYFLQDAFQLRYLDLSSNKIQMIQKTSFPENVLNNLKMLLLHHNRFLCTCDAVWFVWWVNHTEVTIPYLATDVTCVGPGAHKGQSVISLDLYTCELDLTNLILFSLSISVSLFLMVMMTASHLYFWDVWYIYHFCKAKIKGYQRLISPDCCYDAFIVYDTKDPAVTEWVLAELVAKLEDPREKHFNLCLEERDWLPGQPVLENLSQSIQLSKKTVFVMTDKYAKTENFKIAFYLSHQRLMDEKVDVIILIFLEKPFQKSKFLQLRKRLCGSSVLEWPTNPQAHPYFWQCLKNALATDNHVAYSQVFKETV

CYP2C19 = target: T5, CYP2C19 (Homo sapiens, UniProt P33261); assay: Inhibition of human liver microsomal CYP2C19; assay type: in vitro ADME; conditions: human liver microsomes, 10 μM test substance; read-out: Relative inhibition rate (%) CYP2C19
T5 construct: from tissue; host or cells: human liver microsomes
Procedure: as §1

CYP3A4 = target: T6, CYP3A4 (Homo sapiens, UniProt P08684); assay: Inhibition of human liver microsomal CYP3A4; assay type: in vitro ADME; conditions: human liver microsomes, 10 μM test substance
T6 construct: from tissue; host or cells: human liver microsomes
Procedure: as §1

[2] = probe Midazolam, substrate Midazolam, read-out: Relative inhibition rate (%) CYP3A4 (Midazolam)
[3] = probe Testosterone, substrate Testosterone, read-out: Relative inhibition rate (%) CYP3A4 (Testosterone)

T2 sequence (P10635 whole entry): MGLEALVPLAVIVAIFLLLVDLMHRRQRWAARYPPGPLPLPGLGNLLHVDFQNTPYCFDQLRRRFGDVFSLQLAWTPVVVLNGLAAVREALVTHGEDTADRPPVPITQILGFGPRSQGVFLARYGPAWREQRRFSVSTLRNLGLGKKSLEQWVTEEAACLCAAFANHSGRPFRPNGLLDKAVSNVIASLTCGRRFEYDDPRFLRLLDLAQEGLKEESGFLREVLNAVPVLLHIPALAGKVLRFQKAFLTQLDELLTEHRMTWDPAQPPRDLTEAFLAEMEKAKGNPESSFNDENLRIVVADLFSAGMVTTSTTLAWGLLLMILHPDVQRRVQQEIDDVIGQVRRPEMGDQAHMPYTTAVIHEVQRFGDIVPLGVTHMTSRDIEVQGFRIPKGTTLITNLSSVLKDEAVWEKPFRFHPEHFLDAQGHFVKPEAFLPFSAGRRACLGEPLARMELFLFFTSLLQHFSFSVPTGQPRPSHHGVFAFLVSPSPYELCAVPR
T5 sequence (P33261 whole entry): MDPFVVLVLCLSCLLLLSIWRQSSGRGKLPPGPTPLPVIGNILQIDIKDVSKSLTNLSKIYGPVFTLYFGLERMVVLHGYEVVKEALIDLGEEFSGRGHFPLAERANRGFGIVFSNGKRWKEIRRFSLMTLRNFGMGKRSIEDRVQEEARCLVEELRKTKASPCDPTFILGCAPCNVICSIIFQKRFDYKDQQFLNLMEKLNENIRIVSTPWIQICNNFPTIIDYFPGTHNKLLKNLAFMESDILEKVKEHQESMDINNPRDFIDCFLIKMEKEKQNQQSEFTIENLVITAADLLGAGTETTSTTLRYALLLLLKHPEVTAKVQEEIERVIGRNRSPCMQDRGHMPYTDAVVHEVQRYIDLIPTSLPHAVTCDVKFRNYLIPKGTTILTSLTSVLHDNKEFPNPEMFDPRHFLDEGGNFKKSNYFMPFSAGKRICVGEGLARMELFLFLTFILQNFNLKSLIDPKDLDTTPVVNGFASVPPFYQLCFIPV
T6 sequence (P08684 whole entry): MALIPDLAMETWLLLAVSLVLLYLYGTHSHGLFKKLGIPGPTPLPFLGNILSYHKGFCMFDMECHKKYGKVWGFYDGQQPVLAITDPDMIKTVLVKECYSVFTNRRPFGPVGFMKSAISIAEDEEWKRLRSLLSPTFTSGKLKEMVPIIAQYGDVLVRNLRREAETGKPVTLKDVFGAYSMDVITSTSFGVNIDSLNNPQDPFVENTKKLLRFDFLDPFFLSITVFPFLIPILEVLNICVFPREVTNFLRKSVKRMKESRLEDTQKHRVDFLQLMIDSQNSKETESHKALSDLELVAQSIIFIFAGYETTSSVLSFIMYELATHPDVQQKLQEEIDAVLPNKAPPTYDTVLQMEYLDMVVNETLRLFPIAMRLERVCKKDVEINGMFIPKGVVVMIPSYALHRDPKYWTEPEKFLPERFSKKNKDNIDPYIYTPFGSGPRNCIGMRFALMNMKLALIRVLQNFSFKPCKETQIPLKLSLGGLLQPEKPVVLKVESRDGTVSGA

Row | inhibition at 10 µM (CYP1A2) [%] | inhibition at 10 µM (CYP2D6) [%] | EC50 (hTLR8) [µM] | EC50 (hTLR7) [µM] | inhibition at 10 µM (CYP2C19) [%] | inhibition at 10 µM (CYP3A4; [2]) [%] | inhibition at 10 µM (CYP3A4; [3]) [%] | Structure (SMILES) | CC50 at 24 h [1] [µM]
1 | 9 | 20.1 | 0.066 | > 100 | 7 | 25.9 | 7.5 | CCCCN(C)Cc1c[nH]c(=O)cc1-c1ccc2c(N[C@@](C)(CO)CCCC)nc(N)nc2c1 [Example 36, (R)-4-(2-Amino-4-((1-hydroxy-2-methylhexan-2-yl)amino)quinazolin-7-yl)-5-((butyl(methyl)amino)methyl)pyridin-2(1H)-one] | > 100
2 | 7.9 | 12.5 | 0.106 | > 100 | 0.8 | 22.5 | 8.9 | CCCC[C@](C)(CO)Nc1nc(N)nc2cc(-c3cc(=O)[nH]cc3CN(C)CCOC)ccc12 [Example 54, (R)-4-(2-Amino-4-((1-hydroxy-2-methylhexan-2-yl)amino)quinazolin-7-yl)-5-(((2-methoxyethyl)(methyl)amino)methyl)pyridin-2(1H)-one] | > 100
3 | 9.1 | 19.1 | 0.039 | > 100 | 17 | 38.6 | 17.1 | CCCC[C@](C)(CO)Nc1nc(N)nc2cc(-c3cc(=O)n(C)cc3CN(C)CCOC)ccc12 [Example 55, (R)-4-(2-Amino-4-((1-hydroxy-2-methylhexan-2-yl)amino)quinazolin-7-yl)-5-(((2-methoxyethyl)(methyl)amino)methyl)-1-methylpyridin-2(1H)-one] | > 100

The remaining lines, values behind:

Row | Structure (SMILES) | inhibition at 10 µM (CYP1A2) [%] | inhibition at 10 µM (CYP2D6) [%] | EC50 (hTLR8) [µM] | EC50 (hTLR7) [µM] | inhibition at 10 µM (CYP2C19) [%] | inhibition at 10 µM (CYP3A4; [2]) [%] | inhibition at 10 µM (CYP3A4; [3]) [%] | CC50 at 24 h [1] [µM]
4 | CCCC[C@](C)(CO)Nc1nc(N)nc2cc(-c3cc(=O)[nH]cc3CN(C)C)cnc12 [Example 50, (R)-4-(2-Amino-4-((1-hydroxy-2-methylhexan-2-yl)amino)pyrido[3,2-d]pyrimidin-7-yl)-5-((dimethylamino)methyl)pyridin-2(1H)-one] | 10.7 | 9.7 | 0.016 | > 100 | 11.4 | 13.7 | 11.6 | > 100
5 | CCCC[C@](C)(CO)Nc1nc(N)nc2cc(-c3cc(=O)[nH]cc3COC)cnc12 [Example 51, (R)-4-(2-Amino-4-((1-hydroxy-2-methylhexan-2-yl)amino)pyrido[3,2-d]pyrimidin-7-yl)-5-(methoxymethyl)pyridin-2(1H)-one] | 11.1 | 9.6 | 0.012 | > 100 | 22.1 | 7.4 | 34.1 | > 100
6 | CCCCN(C)Cc1cn(C)c(=O)cc1-c1ccc2c(N[C@@](C)(CO)CCCC)nc(N)nc2c1 [Example 56, (R)-4-(2-Amino-4-((1-hydroxy-2-methylhexan-2-yl)amino)quinazolin-7-yl)-5-((butyl(methyl)amino)methyl)-1-methylpyridin-2(1H)-one] | 10.7 | 31.7 | 0.025 | 11.1 | 10.4 | 33.6 | 15.6 | 
7 | CCCC[C@](C)(CO)Nc1nc(N)nc2cc(-c3cc(=O)n(C)cc3CN(C)CCO)ccc12 [Example 64, (R)-4-(2-Amino-4-((1-hydroxy-2-methylhexan-2-yl)amino)quinazolin-7-yl)-5-(((2-hydroxyethyl)(methyl)amino)methyl)-1-methylpyridin-2(1H)-one] | 8.9 | 13.8 | 0.077 | > 100 | 2.4 | 17.6 | 8.8 | > 100
